According to PubChem BioAssay (NCI):
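Values below derive from 48-hour exposures of cells grown in 96-well plates, with endpoints linearly interpolated between the two concentrations bracketing the appropriate inhibition level. The concentration for 50% growth inhibition is given as GI50. TGI is the concentration that stops growth completely.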

Tests used:
Assay in all cases: inhibition of tumour cell growth, NCI panel, 48 h
SF-268 CNS = test system: SF-268 CNS
HCT-116 colon = test system: HCT-116 colon
CAKI-1 renal = test system: CAKI-1 renal
OVCAR-4 ovarian = test system: OVCAR-4 ovarian
UACC-62 melanoma = test system: UACC-62 melanoma
ACHN renal = test system: ACHN renal
NCI-H23 lung = test system: NCI-H23 lung
A498 renal = test system: A498 renal
SK-MEL-2 melanoma = test system: SK-MEL-2 melanoma
IGROV1 ovarian = test system: IGROV1 ovarian

Structure (SMILES) | TGI (SF-268 CNS) | TGI (HCT-116 colon) | TGI (CAKI-1 renal) | TGI (OVCAR-4 ovarian) | TGI (UACC-62 melanoma) | TGI (ACHN renal) | TGI (NCI-H23 lung) | TGI (A498 renal) | TGI (SK-MEL-2 melanoma) | GI50 (SF-268 CNS) | GI50 (IGROV1 ovarian) | TGI (IGROV1 ovarian) | GI50 (HCT-116 colon) | GI50 (CAKI-1 renal) | GI50 (OVCAR-4 ovarian) | GI50 (UACC-62 melanoma) | GI50 (ACHN renal) | GI50 (NCI-H23 lung) | GI50 (A498 renal) | GI50 (SK-MEL-2 melanoma)
CCNc1ccc2c(c1)C(=O)N(OS(C)(=O)=O)C2=O | > 100 µM | > 100 µM | > 100 µM | > 100 µM | > 100 µM | > 100 µM | > 100 µM | > 100 µM | > 100 µM | – | – | – | – | – | – | – | – | – | – | –
CCOc1ccc2cc(-c3nn(CC4CCN(C)CC4)c4ncnc(N)c34)ccc2c1 | 30.2 µM | 28.1 µM | 25.8 µM | 29.7 µM | 32.5 µM | 33 µM | 41.6 µM | 25.2 µM | 32.4 µM | 13.7 µM | 11.2 µM | 31.4 µM | 12.1 µM | 11.1 µM | 12.9 µM | 16.3 µM | 14.7 µM | 15.1 µM | 11.8 µM | 17 µM
C[C@@H]1CC2(C[C@@H](C)C3[C@@H](CC4(C)CCCC5C6=CC(O)(CC[C@]34C)OC6=CC(=O)OC5(C)C)O2)OC1=O (stereo not given in full) | – | > 100 µM | – | > 100 µM | > 100 µM | > 100 µM | > 100 µM | – | > 100 µM | – | – | > 100 µM | – | – | – | – | – | – | – | –
COc1cc(N)c(Cl)cc1C(=O)N[C@@H]1CCN(CCCOc2ccc(F)cc2)C[C@@H]1OC | > 100 µM | > 100 µM | > 100 µM | > 100 µM | > 100 µM | > 100 µM | > 100 µM | – | > 100 µM | > 100 µM | > 100 µM | > 100 µM | 41.8 µM | > 100 µM | > 100 µM | 67.6 µM | > 100 µM | > 100 µM | – | > 100 µM
Cc1cc(O)c2c(c1)OC1(C)CCC3C(C)(C)CCCC34COC2C14 (stereo not given) | 30.7 µM | 27.3 µM | 32.9 µM | 33.5 µM | 34.8 µM | 25.8 µM | 35.9 µM | 26 µM | – | – | – | 38.7 µM | – | – | – | – | – | – | – | –
C=C(c1ccccc1)c1cc2c(=O)[nH]ccc2n1C | > 100 µM | – | > 100 µM | > 100 µM | > 100 µM | > 100 µM | > 100 µM | – | 58.3 µM | – | – | > 100 µM | – | – | – | – | – | – | – | –
CC(C)(C)OC(=O)NCCCCCCCCCCCCn1c2c(c3ccccc3c1=O)C(=O)c1ccccc1-2 | > 100 µM | > 100 µM | 57.9 µM | > 100 µM | > 100 µM | 54.7 µM | > 100 µM | 68.7 µM | 38.2 µM | 26.8 µM | – | – | > 100 µM | 22 µM | > 100 µM | 27.4 µM | 21.1 µM | 36.9 µM | 24.7 µM | 18.1 µM
O=C(O)C1CC2C=CCC(C2)C1 (stereo not given) | > 100 µM | > 100 µM | > 100 µM | > 100 µM | > 100 µM | > 100 µM | > 100 µM | – | > 100 µM | – | – | > 100 µM | – | – | – | – | – | – | – | –
CC(=O)c1nc(-c2ccc(C[C@@H](CNC(=O)CN(C)C)NC(=O)c3ccc(OC(C)C)c(Cl)c3)cc2)cn1C | 22.7 µM | 13.1 µM | – | 22.9 µM | 19.1 µM | 20.2 µM | 21.1 µM | 2.04 µM | 15.5 µM | 0.242 µM | 0.896 µM | 21.9 µM | 0.0393 µM | – | 0.842 µM | 0.0587 µM | 1.01 µM | 0.0647 µM | 0.0407 µM | 0.061 µM
CC(NC1CCCC[C@@H]1O)c1ccccc1 (stereo not given in full) | – | > 100 µM | > 100 µM | > 100 µM | > 100 µM | > 100 µM | – | – | > 100 µM | – | – | > 100 µM | – | – | – | – | – | – | – | –
OC[C@H]1N[C@H](CO)[C@@H](O)[C@H]1O | > 100 µM | > 100 µM | > 100 µM | – | > 100 µM | > 100 µM | > 100 µM | > 100 µM | > 100 µM | – | – | > 100 µM | – | – | – | – | – | – | – | –
COc1c2c(c(O)c3c4c(c(C)cc13)C1OC3(C(OC)OC5CC(C)(O)C(OC6CC(C)(O)C(O)C(C)O6)C(C)O5)OC1C(OC)(O4)C31CO1)C(=O)C(O)CC2OC1CC(C)(O)C(OC(C)=O)C(C)O1 (stereo not given) | 0.0167 µM | 5.74 µM | 2.71 µM | < 0.01 µM | < 0.01 µM | 0.0924 µM | < 0.01 µM | – | < 0.01 µM | – | – | 0.957 µM | – | – | – | – | – | – | – | –
C/C(=C\c1ccccc1)C(=O)c1c(C)cc(C)cc1C | > 100 µM | > 100 µM | > 100 µM | > 100 µM | > 100 µM | > 100 µM | > 100 µM | – | > 100 µM | – | – | > 100 µM | – | – | – | – | – | – | – | –
c1ccc(N2CCN(CCN3CCc4c([nH]c5ccccc45)C3c3cccnc3)CC2)cc1 (stereo not given) | > 100 µM | > 100 µM | > 100 µM | > 100 µM | > 100 µM | > 100 µM | > 100 µM | > 100 µM | – | – | – | > 100 µM | – | – | – | – | – | – | – | –
O=C(NCCCN1CCN(CCCNC(=O)Nc2cc(Cl)ccc2Cl)CC1)Nc1cc(Cl)ccc1Cl | > 100 µM | > 100 µM | > 100 µM | > 100 µM | > 100 µM | > 100 µM | > 100 µM | – | > 100 µM | – | – | > 100 µM | – | – | – | – | – | – | – | –
COc1ccc(OCC(=O)O)c2c1CCC(C)C2=O (stereo not given) | > 100 µM | > 100 µM | > 100 µM | > 100 µM | > 100 µM | > 100 µM | – | > 100 µM | > 100 µM | – | – | > 100 µM | – | – | – | – | – | – | – | –
Nc1ccc(C(=O)N/C(=C\c2ccc3c(c2)OCO3)c2nc3ccccc3s2)cc1 | 24.2 µM | – | 29.7 µM | 25.1 µM | 33.2 µM | 27.2 µM | – | – | 28 µM | – | – | 31.7 µM | – | – | – | – | – | – | – | –
COC(OC)c1cccnc1C | > 100 µM | > 100 µM | > 100 µM | > 100 µM | > 100 µM | > 100 µM | > 100 µM | – | > 100 µM | – | – | > 100 µM | – | – | – | – | – | – | – | –
Fc1ccc(-c2ncn(C3CCNCC3)c2-c2ccnc(Oc3ccc(Cl)cc3)n2)cc1 | > 25 µM | 7.65 µM | > 16.7 µM | 9.69 µM | 8.04 µM | 10.6 µM | – | 21.4 µM | 8.67 µM | 8.67 µM | 4.62 µM | 13.3 µM | 3.97 µM | 5.49 µM | 4.15 µM | 4.18 µM | 4.19 µM | – | 3.67 µM | 4.45 µM
Nc1ccccc1SC(/C=C/NNC1=NC(c2ccccc2)C(c2ccccc2)=NN1)c1ccccc1 (stereo not given) | 17.1 µM | – | 26.4 µM | 28.7 µM | 24.1 µM | 28.6 µM | 21.4 µM | 36.8 µM | 33 µM | – | – | 32.5 µM | – | – | – | – | – | – | – | –
